Reference: PubChem BioAssay AID328 (DTP/NCI, 2004)
“And” between values parts separate entries of the source, which are not always exact repeats. Identical values can stand only once. Inconclusive results and toxic doses are left out. The calls were made as follows: active = survival T/C of 150% or more; inactive = T/C below 125% in these data.

Test system: BDF1 mice, P388 leukemia ip, median survival T/C
Test: NCI In Vivo Anticancer Drug Screen. Data for tumor model P388 Leukemia (intraperitoneal) in B6D2F1 (BDF1) mice
Details: endpoint: median survival time, higher = longer survival
In short: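 Mice carrying the transplantable tumour receive compound or vehicle. Survival is followed in each arm, and the treated measure is divided by the vehicle measure.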

[1] = dose: 100.0 mg/kg/injection, schedule: Q01DX009 (ip), vehicle: Klucel (hydroxypropylcellulose) (HPC)
[2] = dose: 200.0 mg/kg/injection, schedule: Q01DX009 (ip), vehicle: Klucel (hydroxypropylcellulose) (HPC)
[3] = dose: 400.0 mg/kg/injection, schedule: Q01DX009 (ip), vehicle: Klucel (hydroxypropylcellulose) (HPC)
[4] = dose: 50.0 mg/kg/injection, schedule: Q01DX009 (ip), vehicle: saline with Tween-80
[5] = dose: 100.0 mg/kg/injection, schedule: Q01DX009 (ip), vehicle: saline with Tween-80
[6] = dose: 25.0 mg/kg/injection, schedule: Q01DX009 (ip), vehicle: Klucel (hydroxypropylcellulose) (HPC)
[7] = dose: 25.0 mg/kg/injection, schedule: Q01DX009 (ip), vehicle: saline with Tween-80
[8] = dose: 100.0 mg/kg/injection, schedule: Q04DX003 (ip), vehicle: Klucel (hydroxypropylcellulose) (HPC)

Measured: T/C

Nc1nc(=S)c2[nH]cnc2[nH]1
inactive: dose: 0.12 mg/kg/injection, schedule: Q01DX009 (ip), vehicle: acetone 91 % of control | dose: 0.25 mg/kg/injection, schedule: Q01DX009 (ip), vehicle: acetone 100 % of control | dose: 0.5 mg/kg/injection, schedule: Q01DX009 (ip), vehicle: acetone 104 % of control | dose: 0.63 mg/kg/injection, schedule: Q01DX010 (ip), vehicle: saline 122 % of control | dose: 1.0 mg/kg/injection, schedule: Q01DX009 (ip), vehicle: acetone 112 % of control | dose: 1.25 mg/kg/injection, schedule: Q01DX010 (ip), vehicle: other 115 % of control | dose: 2.0 mg/kg/injection, schedule: Q01DX009 (ip), vehicle: acetone 95 % of control | dose: 2.5 mg/kg/injection, schedule: Q01DX010 (ip), vehicle: other 111 % of control | dose: 2.5 mg/kg/injection, schedule: Q01DX010 (ip), vehicle: saline 104 % of control | dose: 5.0 mg/kg/injection, schedule: Q01DX010 (ip), vehicle: other 90 % of control and 100 % of control | dose: 5.0 mg/kg/injection, schedule: Q01DX010 (ip), vehicle: saline 100 % of control
active: dose: 1.25 mg/kg/injection, schedule: Q01DX010 (ip), vehicle: saline 159 % of control

CCOC(=O)C(C)NC(=O)N(C)C12CC3CC(CC(C3)C1)C2 (stereo unspecified)
inactive: [1] 113 % of control | [2] 117 % of control | [3] 119 % of control

Cc1ccc(-c2nc3ccccc3c(=O)n2/N=C/c2ccccc2)cc1
inactive: [4] 90 % of control | [5] 93 % of control

Cc1cc[n+]2cc3c(ccc4ccccc43)c(C)c2c1
inactive: dose: 0.7 mg/kg/injection, schedule: Q01DX010 (ip), vehicle: carboxymethylcellulose (CMC) 110 % of control | dose: 1.5 mg/kg/injection, schedule: Q01DX010 (ip), vehicle: carboxymethylcellulose (CMC) 100 % of control | dose: 3.0 mg/kg/injection, schedule: Q01DX010 (ip), vehicle: carboxymethylcellulose (CMC) 110 % of control | dose: 6.0 mg/kg/injection, schedule: Q01DX010 (ip), vehicle: carboxymethylcellulose (CMC) 115 % of control | dose: 12.5 mg/kg/injection, schedule: Q01DX010 (ip), vehicle: carboxymethylcellulose (CMC) 110 % of control | dose: 25.0 mg/kg/injection, schedule: Q01DX010 (ip), vehicle: carboxymethylcellulose (CMC) 110 % of control

CCCCCCCCCCCC(=O)Oc1c(Cl)c(Cl)c(C#N)c(Cl)c1Cl
inactive: [4] 94 % of control | dose: 200.0 mg/kg/injection, schedule: Q01DX009 (ip), vehicle: saline with Tween-80 86 % of control

COc1cccc(S(=O)c2ccc([N+](=O)[O-])c3no[n+]([O-])c23)c1 (stereo unspecified)
inactive: dose: 15.0 mg/kg/injection, schedule: Q01DX009 (ip), vehicle: saline with Tween-80 112 % of control

C[N+](C)(Cn1nc(Cl)c2ccc([N+](=O)[O-])cc21)Cn1nc(Cl)c2ccc([N+](=O)[O-])cc21
inactive: dose: 100.0 mg/kg/injection, schedule: Q04DX003 (ip), vehicle: saline with Tween-80 100 % of control | dose: 200.0 mg/kg/injection, schedule: Q04DX003 (ip), vehicle: saline with Tween-80 108 % of control

C=C=[CH][Sn]([c]1ccccc1)([c]1ccccc1)[c]1ccccc1
inactive: dose: 6.25 mg/kg/injection, schedule: Q01DX009 (ip), vehicle: Klucel (hydroxypropylcellulose) (HPC) 92 % of control and 108 % of control | dose: 12.5 mg/kg/injection, schedule: Q01DX009 (ip), vehicle: Klucel (hydroxypropylcellulose) (HPC) 96 % of control and 104 % of control | [6] 107 % of control and 112 % of control and 115 % of control

O=C(O)CNC(=O)CNC(=O)C(Br)Cc1ccccc1 (stereo unspecified)
inactive: [7] 95 % of control | dose: 25.0 mg/kg/injection, schedule: Q04DX003 (ip), vehicle: Klucel (hydroxypropylcellulose) (HPC) 104 % of control | [4] 87 % of control | dose: 50.0 mg/kg/injection, schedule: Q04DX003 (ip), vehicle: Klucel (hydroxypropylcellulose) (HPC) 104 % of control | [5] 100 % of control | [8] 91 % of control and 100 % of control

O=C1C=CC(=O)c2c(O)c(CO)c(CO)c(O)c21
inactive: dose: 0.19 mg/kg/injection, schedule: Q01DX009 (ip), vehicle: water 100 % of control | dose: 0.39 mg/kg/injection, schedule: Q01DX009 (ip), vehicle: water 108 % of control | dose: 0.78 mg/kg/injection, schedule: Q01DX009 (ip), vehicle: water 115 % of control | dose: 1.56 mg/kg/injection, schedule: Q01DX009 (ip), vehicle: water 102 % of control | dose: 3.12 mg/kg/injection, schedule: Q01DX009 (ip), vehicle: water 108 % of control

CCc1ccc(/C=C/c2ccc(O)c3ncccc23)[n+](C)c1
inactive: dose: 0.74 mg/kg/injection, schedule: Q01DX009 (ip), vehicle: saline 100 % of control | dose: 1.1 mg/kg/injection, schedule: Q01DX009 (ip), vehicle: saline 109 % of control | dose: 1.7 mg/kg/injection, schedule: Q01DX009 (ip), vehicle: Klucel (hydroxypropylcellulose) (HPC) 108 % of control | dose: 4.1 mg/kg/injection, schedule: Q01DX009 (ip), vehicle: Klucel (hydroxypropylcellulose) (HPC) 122 % of control | dose: 8.0 mg/kg/injection, schedule: Q04DX003 (ip), vehicle: saline 122 % of control
active: dose: 1.7 mg/kg/injection, schedule: Q01DX009 (ip), vehicle: saline 150 % of control | dose: 2.6 mg/kg/injection, schedule: Q01DX009 (ip), vehicle: saline 160 % of control | dose: 8.0 mg/kg/injection, schedule: Q01DX009 (ip), vehicle: Klucel (hydroxypropylcellulose) (HPC) 150 % of control | dose: 8.0 mg/kg/injection, schedule: Q01DX009 (ip), vehicle: saline with Tween-80 170 % of control | dose: 10.56 mg/kg/injection, schedule: Q01DX009 (ip), vehicle: saline with Tween-80 154 % of control | dose: 16.0 mg/kg/injection, schedule: Q01DX009 (ip), vehicle: Klucel (hydroxypropylcellulose) (HPC) 170 % of control | dose: 16.0 mg/kg/injection, schedule: Q01DX009 (ip), vehicle: saline with Tween-80 159 % of control and 179 % of control | dose: 16.5 mg/kg/injection, schedule: Q01DX009 (ip), vehicle: Klucel (hydroxypropylcellulose) (HPC) 160 % of control and 166 % of control | dose: 24.0 mg/kg/injection, schedule: Q01DX009 (ip), vehicle: saline with Tween-80 158 % of control | [6] 171 % of control and 185 % of control | dose: 32.0 mg/kg/injection, schedule: Q01DX009 (ip), vehicle: saline with Tween-80 179 % of control

NC1C(O)C(O)C(Nc2ncnc3nc[nH]c23)OC1C(O)CO (stereo unspecified)
inactive: dose: 1.5 mg/kg/injection, schedule: Q01DX010 (ip), vehicle: saline 105 % of control | dose: 3.0 mg/kg/injection, schedule: Q01DX010 (ip), vehicle: saline 105 % of control | dose: 6.0 mg/kg/injection, schedule: Q01DX010 (ip), vehicle: saline 100 % of control | dose: 12.0 mg/kg/injection, schedule: Q01DX010 (ip), vehicle: saline 95 % of control | dose: 24.0 mg/kg/injection, schedule: Q01DX010 (ip), vehicle: saline 110 % of control | dose: 48.0 mg/kg/injection, schedule: Q01DX010 (ip), vehicle: saline 105 % of control

C[n+]1csc(=S)[nH]1
inactive: dose: 25.0 mg/kg/injection, schedule: Q04DX003 (ip), vehicle: saline 86 % of control | dose: 50.0 mg/kg/injection, schedule: Q04DX003 (ip), vehicle: saline 95 % of control | dose: 100.0 mg/kg/injection, schedule: Q04DX003 (ip), vehicle: saline 100 % of control

CC1NC(=O)NC1CCCCCC(=O)O (stereo unspecified)
inactive: [1] 95 % of control | [8] 116 % of control | [2] 90 % of control | dose: 200.0 mg/kg/injection, schedule: Q04DX003 (ip), vehicle: Klucel (hydroxypropylcellulose) (HPC) 104 % of control | [3] 95 % of control | dose: 400.0 mg/kg/injection, schedule: Q04DX003 (ip), vehicle: Klucel (hydroxypropylcellulose) (HPC) 91 % of control

N#Cc1nc(C#N)c(Sc2ccccc2)c(Sc2ccccc2)c1Sc1ccccc1
inactive: dose: 12.5 mg/kg/injection, schedule: Q01DX009 (ip), vehicle: saline with Tween-80 101 % of control and 110 % of control | [7] 100 % of control and 103 % of control | [4] 121 % of control and 122 % of control
